The target of data set [1] is T1, pancreatic lipase (PL) (Sus scrofa, UniProt P00591).
T1 construct: Enriched preparation from porcine pancreas; purchased Sigma L-0382; host or cells: porcine pancreas (tissue preparation)
T1 sequence (P00591 1-450): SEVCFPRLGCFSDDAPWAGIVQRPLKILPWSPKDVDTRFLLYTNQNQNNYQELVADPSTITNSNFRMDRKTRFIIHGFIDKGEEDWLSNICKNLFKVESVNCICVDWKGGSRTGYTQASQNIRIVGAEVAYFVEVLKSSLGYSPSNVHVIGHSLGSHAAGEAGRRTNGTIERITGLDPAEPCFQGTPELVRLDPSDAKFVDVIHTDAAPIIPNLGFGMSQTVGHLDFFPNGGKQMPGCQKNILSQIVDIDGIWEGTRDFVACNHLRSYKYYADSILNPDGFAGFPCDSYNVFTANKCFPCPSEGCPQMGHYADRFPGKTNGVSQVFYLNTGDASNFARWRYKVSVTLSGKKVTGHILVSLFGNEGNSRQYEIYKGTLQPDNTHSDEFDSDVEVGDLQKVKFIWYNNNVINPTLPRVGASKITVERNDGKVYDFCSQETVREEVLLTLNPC
As to the kind of experiment: Pancreatic lipase inhibition assay (release of radiolabeled oleate from glycerol tri[9,10(n)-3H]oleate/tripalmitin substrate). In kind it is biochemical. To be noted: enriched lipase preparation from porcine pancreas; 30° C., 30 min; up to 8 concentrations. The procedure:
The activity of the compounds was assayed as follows:
1. Preparation of the substrate:
80 μL of tripalmitin (85 mM in chloroform) are mixed with 5 μL of glycerol tri[9,10(n)-^3H]oleate (5 mCi/mL in toluene) in a 12 mL polypropylene vessel. Evaporation in a rotary evaporator (50° C.) and addition of 4 mL of 200 mM Tris/HCl (pH 7.6), 0.8% TX-100 are followed by ultrasound treatment of the mixture (Branson B-12 sonifier, output level 4, 3×2 min with 1 min intervals on ice) until a homogeneous milky suspension is produced.
Lipase buffer: 80 mM Tris/HCl (pH 7.6), 600 mM NaCl, 8 mM CaCl2, 8 mM benzamidine, 2 mM Pefabloc (Roche Biochemicals) (add the inhibitors only on the day of the assay)
Pancreatic lipase: Enriched preparation from porcine pancreas (Sigma order No. L-0382) dissolved in lipase buffer (100 000 units/500 μL)
5 μL of test substance (in 100% DMSO) or DMSO (control) are mixed with 10 μL of substrate and 5 μL of lipase (in this sequence) and incubated at 30° C. (Eppendorf Thermomixer, 350 min^−1) for 30 min. After addition of 325 μL of methanol/chloroform/n-heptane (10/9/7) and 105 μl of 0.1 M K2CO3, 0.1 M H3BO3 (pH 10.5 adjusted with 1 M KOH) and vigorous mixing, the phases are separated by centrifugation (8000 rpm, Eppendorf centrifuge, 4° C.). 140 μL portions of the aqueous supernatant (contains the liberated radiolabeled oleate; 70% recovery) are transferred into 20 mL scintillation vials and mixed with 6 mL of scintillation cocktail (Beckman Ready Safe). After vigorously mixing and incubating at room temperature for 2 h, the radioactivity is measured in a liquid scintillation counter (Beckman, L8008, tritium channel with quench curve, measurement time 20 min).
Substances are routinely tested in each concentration in three independent incubation mixtures each with duplicate determination after phase separation (SD<0.02). Background values (reaction under the same conditions but without lipase) are subtracted from all values (corresponds predominantly to the content of glycerol trioleate or free oleate in the substrate preparation in the aqueous phase, <5% of the radioactivity employed). The inhibition of the pancreatic lipase enzymatic activity by a test substance is determined by comparison with an uninhibited control reaction (presence of lipase=0% inhibition; absence of lipase 100% inhibition in each case after background correction). The IC50 is calculated from an inhibition plot with up to 8 concentrations of the test substance. The software package GRAPHIT (Elsevier-BIOSOFT) is used for curve fitting and IC50 determination.

Drawing on patent publication US20030236288A1, “Use of substituted 3-phenyl-5-alkoxy-3H-(1,3,4)-oxadizol-2-ones for inhibiting pancreatic lipase” (priority 2002, published 2003), this text covers melting point and IC50 for 21 compounds.

Some results are limits rather than exact numbers.

For `COc1nn(-c2ccc(Oc3ccccc3)cc2)c(=O)o1`, the melting point worked out at 83 °C.

The compound `COc1nn(-c2ccc(NC(=O)c3ccc(Cl)cc3)c(OCc3ccc(F)cc3)c2)c(=O)o1` [Example 46, 5-Methoxy-3-(4-(4-chlorobenzoylamino)-3-(4-fluorobenzyloxy)phenyl)-3H-(1,3,4)-oxadiazol-2-one] yielded a melting point of 167 °C.

As to `COc1nn(-c2cccc(NC(=O)Nc3ccccn3)c2)c(=O)o1` [Example 59, 5-Methoxy-3-(3-(pyrid-2-yl)aminocarbonylaminophenyl)-3H-(1,3,4)-oxadiazol-2-one], the melting point is 81 °C.

In data set [1], `COc1nn(-c2ccc(NC(=O)c3ccc(C(F)(F)F)cc3)c(OCc3ccccc3)c2)c(=O)o1` [Example 86, 5-Methoxy-3-(3-benzyloxy-4-(4-trifluoromethylbenzoylamino)phenyl)-3H-(1,3,4)-oxadiazol-2-one] returned an IC50 of 1500 nM.

In the case of `COc1nn(-c2ccc(S(=O)(=O)N3CCOCC3)cc2)c(=O)o1` [Example 208, 3-(4-Morpholinosulfonylphenyl)-5-methoxy-3H-(1,3,4)-oxadiazol-2-one], the melting point is 164 °C.

`COc1nn(-c2ccc(OC(F)(F)F)cc2)c(=O)o1` [Example 209, 3-(4-Trifluoromethoxyphenyl)-5-methoxy-3H-(1,3,4)-oxad iazol-2-one] came in with a melting point of 52 °C.

`CCOc1nn(-c2ccc(OC(F)(F)F)cc2)c(=O)o1` [Example 210, 3-(4-Trifluoromethoxyphenyl)-5-ethoxy-3H-(1,3,4)-oxad iazol-2-one] registered a melting point of 63 °C. In addition, the IC50 in data set [1] amounted to 700 nM.

`CCCCOc1nn(-c2ccc(OC(F)(F)F)cc2)c(=O)o1` [Example 212, 3-(4-Trifluoromethoxyphenyl)-5-butoxy-3H-(1,3,4)-oxadiazol-2-one] showed a 50% inhibitory concentration (IC50) in data set [1] of 500 nM.

Turning to `O=c1oc(OCc2ccccc2)nn1-c1ccc(OC(F)(F)F)cc1` [Example 213, 3-(4-Trifluoromethoxyphenyl)-5-benzyloxy-3H-(1,3,4)-oxad iazol-2-one], in data set [1], 500 nM corresponded to half-maximal inhibition (IC50).

`COc1nn(-c2ccc(S(=O)(=O)NC3CC(C)CC(C)(C)C3)cc2)c(=O)o1` (centres unmarked) [Example 214, 3-(4-(3,3,5-Trimethylcyclohexylaminosulfonyl)phenyl)-5-methoxy-3H-(1,3,4)-oxadiazol-2-one] showed a melting point of 164 °C.

Turning to `CCOc1nn(-c2ccc(OC3CC(C)(C)CC(C)(C)C3)cc2)c(=O)o1` [Example 215, 3-(4-(3,3,5,5-Tetramethylcyclohexyloxy)phenyl)-5-ethoxy-3H-(1,3,4)-oxad iazol-2-one], the melting point was found to be 111 °C.

Compound `COc1nn(-c2cccc(OCc3ccccc3)c2)c(=O)o1` [Example 216, 3-(3-Benzyloxyphenyl)-5-methoxy-3H-(1,3,4)-oxadiazol-2-one] gave an IC50 in data set [1] of 800 nM.

For `CCOc1nn(-c2cccc(OC(F)(F)F)c2)c(=O)o1` [Example 218, 3-(3-Trifluoromethoxyphenyl)-5-ethoxy-3H-(1,3,4)-oxad iazol-2-one], in data set [1], inhibition was half-maximal at 700 nM (IC50).

In turn, `CC(C)Oc1nn(-c2cccc(OC(F)(F)F)c2)c(=O)o1` [Example 220, 3-(3-Trifluoromethoxyphenyl)-5-isopropoxy-3H-(1,3,4)-oxadiazol-2-one] yielded an IC50 in data set [1] of 1800 nM.

Take `COc1nn(-c2ccc(Oc3ccc(Cl)cc3)cc2)c(=O)o1` [Example 229, 3-(4-(4-Chlorophenoxy)phenyl)-5-methoxy-3H-(1,3,4)-oxad iazol-2-one]: the melting point is 68 °C. In data set [1], the IC50 amounted to 600 nM.

`COc1nn(-c2cccc(Oc3ccccc3)c2)c(=O)o1` [Example 232, 3-(3-Phenoxyphenyl)-5-methoxy-3H-(1,3,4)-oxad iazol-2-one]: the melting point was 89 °C.

`CCOc1nn(-c2cccc(Oc3ccccc3)c2)c(=O)o1` [Example 233, 3-(3-Phenoxyphenyl)-5-ethoxy-3H-(1,3,4)-oxadiazol-2-one]: the melting point turned out to be 50 °C.

Consider `COc1nn(-c2cccc(OC3CC(C)(C)CC(C)(C)C3)c2)c(=O)o1` [Example 237, 3-(3-(3,3,5,5-Tetramethylcyclohexyloxy)phenyl)-5-methoxy-3H-(1,3,4)-oxadiazol-2-one], for which the melting point worked out at 68 °C.

As for `COc1nn(-c2ccc(-c3ccccc3)cc2)c(=O)o1` [Example 238, 3-(4-Phenylphenyl)-5-methoxy-3H-(1,3,4)-oxadiazol-2-one], the melting point was > 260 °C (dec.).

On to `COc1nn(-c2cccc(COc3cccc(C)c3)c2)c(=O)o1` [Example 239, 3-(3-(3-Methylphenoxymethyl)phenyl)-5-methoxy-3H-(1,3,4)-oxadiazol-2-one], for which the melting point was found to be 47 °C.

`COc1nn(-c2cccc(-c3ccccc3)c2)c(=O)o1` [Example 240, 3-(3-Phenylphenyl)-5-methoxy-3H-(1,3,4)-oxadiazol-2-one] yielded a melting point of 80 °C.

As usually defined, the melting point is the temperature, or range, at which the solid turns liquid. One may read the IC50 as the midpoint of a concentration-inhibition curve. Lower therefore signals inhibition by little substance.
